{
  "source": "patent US10092573B2",
  "about": "“Gastric and colonic formulations and methods for making and using them” (Salix Pharmaceuticals, Inc., priority 2010, dated 2018)",
  "origin": "cited, not measured here",
  "key": {"[1]": {"test": "not given", "remark": "listed apart in the source"}},
  "note": "Entries after “also recorded” stand apart in the source; their conditions may differ. Where two headings read alike, the source gives them in different places.",
  "data": [
    {"smiles": "CC(=O)Oc1ccc(C(c2ccc(OC(C)=O)cc2)c2ccccn2)cc1", "note": "[Bisacodyl, 4,4′-(pyridin-2-ylmethylene) bis(4,1-phenylene) diacetate]", "values": [
      {"measurement": "association with ischemic colitis", "setting": "10 mg tablet form in combination with HALFLYTELY", "result": "less frequently"},
      {"measurement": "association with ischemic colitis", "setting": "doses of 20 mg", "result": "on rare occasions"},
      {"measurement": "ischemic colitis", "setting": "widespread chronic use at a lower dosage range, often daily, for constipation or bloating", "result": "No ischemic colitis has been consistently observed or reported"}
    ]},
    {"smiles": "OC[C@@H](O)[C@@H](O)CO", "note": "[Erythritol, (2R,3S)-butane-1,2,3,4-tetraol]", "values": [
      {"measurement": "effect on creatinine, urea or electrolytes (sodium, potassium, chloride, phosphate) output", "setting": "[1]; 24 hour output, renal", "result": "no effect; also recorded: does not influence"},
      {"measurement": "doses with no recorded significant human gastroenterological side effects", "setting": "[1]; human", "result": "up to 1000 mg/kg body weight/day"},
      {"measurement": "carcinogenic, mutagenic or teratogenic potential", "setting": "[1]; in vivo", "result": "does not have any"},
      {"measurement": "share of the ingested erythritol that enters the colon", "setting": "[1]; in vivo", "result": "about 10%"},
      {"measurement": "systemic metabolism and excretion of absorbed erythritol", "setting": "[1]; in vivo", "result": "not metabolized systemically and is excreted unchanged in urine"},
      {"measurement": "toxicological effects in safety studies", "setting": "[1]; in vivo", "result": "no toxicological effects"}
    ]}
  ]
}
